Experimental data published in the supplement of paper PMC10307832.

Legend:
Test in all cases: relative viability (nuclei count vs DMSO), 5 days (fraction); higher = more cells survive
[1] = compound: C=CCNC1=C2C[C@@H](C)C[C@H](OC)[C@H](O)[C@@H](C)/C=C(\C)[C@H](OC(N)=O)[C@@H](OC)/C=C\C=C(/C)C(=O)NC(=CC1=O)C2=O [17-AAG] + O=C(CCCCCCC(=O)Nc1ccccc1)NO [Vorinostat] (partner 1 µM)
In short: (§1)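 A single step with final 0.05% Triton X-100, 1% formaldehyde and 1 ug/ml Hoechst fixed the cells and stained nuclei 5 days after treatment. Lung cancer cell lines in 1536-well plates had been treated by pin tool the day after seeding with one drug alone or a fixed anchor-drug dose plus five library-drug doses (not always all listed) in √10 steps, and nuclei were counted on 4× images. Relative viability is the ratio of nuclei in treated wells to nuclei in vehicle wells, taken as the median of duplicate plates.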

[2] = compound: C=CCNC1=C2C[C@@H](C)C[C@H](OC)[C@H](O)[C@@H](C)/C=C(\C)[C@H](OC(N)=O)[C@@H](OC)/C=C\C=C(/C)C(=O)NC(=CC1=O)C2=O [17-AAG] + CC1(C)CCC(c2ccc(Cl)cc2)=C(CN2CCN(c3ccc(C(=O)NS(=O)(=O)c4ccc(N[C@H](CCN5CCOCC5)CSc5ccccc5)c(S(=O)(=O)C(F)(F)F)c4)cc3)CC2)C1 [Navitoclax] (partner 0.5 µM)
In short: as §1

[3] = compound: C=CCNC1=C2C[C@@H](C)C[C@H](OC)[C@H](O)[C@@H](C)/C=C(\C)[C@H](OC(N)=O)[C@@H](OC)/C=C\C=C(/C)C(=O)NC(=CC1=O)C2=O [17-AAG] + C[C@]1(O)C[C@@H](c2nc(-c3ccc4ccc(-c5ccccc5)nc4c3)c3c(N)nccn32)C1 [Linsitinib] (partner 1 µM)
In short: as §1

[4] = compound: C=CCNC1=C2C[C@@H](C)C[C@H](OC)[C@H](O)[C@@H](C)/C=C(\C)[C@H](OC(N)=O)[C@@H](OC)/C=C\C=C(/C)C(=O)NC(=CC1=O)C2=O [17-AAG] + Nc1nc2[nH]cc(CCc3ccc(C(=O)N[C@@H](CCC(=O)O)C(=O)O)cc3)c2c(=O)[nH]1 [Pemetrexed] (partner 0.2 µM)
In short: as §1

Row | Cell Line | relative viability ([1]; first compound 0.00128 µM) | relative viability ([1]; first compound 0.004048 µM) | relative viability ([1]; first compound 0.0128 µM) | relative viability ([1]; first compound 0.04048 µM) | relative viability ([1]; first compound 0.128 µM) | relative viability ([2]; first compound 0.00128 µM) | relative viability ([2]; first compound 0.004048 µM) | relative viability ([2]; first compound 0.0128 µM) | relative viability ([2]; first compound 0.04048 µM) | relative viability ([2]; first compound 0.128 µM) | relative viability ([3]; first compound 0.00128 µM) | relative viability ([3]; first compound 0.004048 µM) | relative viability ([3]; first compound 0.0128 µM) | relative viability ([3]; first compound 0.04048 µM) | relative viability ([3]; first compound 0.128 µM) | relative viability ([4]; first compound 0.00128 µM) | relative viability ([4]; first compound 0.004048 µM) | relative viability ([4]; first compound 0.0128 µM) | relative viability ([4]; first compound 0.04048 µM) | relative viability ([4]; first compound 0.128 µM)
1 | NCI-H1651 | 0.538 | 0.536 | 0.545 | 0.578 | 0.492 | 1.05 | 0.882 | 1.01 | 0.214 | 0.148 | 1.09 | 1.01 | 0.975 | 0.227 | 0.177 | 0.635 | 0.605 | 0.585 | 0.536 | 0.173
2 | NCI-H1666 | 1.1 | 1.06 | 1.02 | 0.498 | 0.482 | 0.958 | 0.699 | 0.277 | 0.314 | 0.236 | 0.764 | 0.554 | 0.27 | 0.253 | 0.224 | 0.921 | 0.877 | 0.908 | 0.515 | 0.517
3 | NCI-H1734 | 0.77 | 0.851 | 0.574 | 0.271 | 0.132 | 0.871 | 0.811 | 0.756 | 0.24 | 0.114 | 0.87 | 0.838 | 0.878 | 0.308 | 0.18 | 0.4 | 0.474 | 0.475 | 0.261 | 0.161
4 | NCI-H1755 | 0.815 | 0.735 | 0.712 | 0.589 | 0.243 | 1.01 | 1 | 0.957 | 0.8 | 0.315 | 1.03 | 1.01 | 0.934 | 0.825 | 0.39 | 0.47 | 0.404 | 0.407 | 0.355 | 0.214
5 | NCI-H1793 | 0.687 | 0.656 | 0.283 | 0.189 | 0.148 | 0.346 | 0.323 | 0.228 | 0.192 | 0.151 | 0.824 | 0.712 | 0.51 | 0.236 | 0.153 | 0.837 | 0.513 | 0.213 | 0.16 | 0.124
6 | NCI-H1915 | 0.447 | 0.465 | 0.45 | 0.167 | 0.0637 | 0.763 | 0.754 | 0.797 | 0.771 | 0.409 | 1.05 | 1.08 | 1.14 | 1.07 | 0.83 | 0.521 | 0.462 | 0.422 | 0.191 | 0.057
7 | NCI-H1944 | 0.486 | 0.506 | 0.397 | 0.257 | 0.134 | 1.05 | 1.05 | 1.02 | 0.948 | 0.372 | 1.25 | 1.22 | 1.16 | 0.872 | 0.319 | 0.601 | 0.561 | 0.357 | 0.266 | 0.131
8 | NCI-H1975 | 0.716 | 0.597 | 0.311 | 0.157 | 0.152 | 1.23 | 0.928 | 0.453 | 0.186 | 0.145 | 1.03 | 0.725 | 0.31 | 0.164 | 0.139 | 0.299 | 0.338 | 0.191 | 0.162 | 0.156
9 | NCI-H1993 | 0.83 | 0.73 | 0.472 | 0.201 | 0.273 | 0.904 | 0.933 | 0.529 | 0.564 | 0.441 | 0.764 | 0.718 | 0.711 | 0.573 | 0.5 | 0.65 | 0.649 | 0.437 | 0.298 | 0.323
10 | NCI-H2009 | 0.681 | 0.724 | 0.735 | 0.699 | 0.276 | 1.1 | 1.09 | 1.07 | 0.884 | 0.369 | 1.14 | 1.2 | 1.01 | 0.775 | 0.328 | 1.01 | 1.03 | 1.04 | 0.86 | 0.166
11 | NCI-H2023 | 0.572 | 0.37 | 0.112 | 0.0782 | 0.0643 | 0.989 | 0.867 | 0.641 | 0.11 | 0.112 | 0.595 | 0.501 | 0.103 | 0.117 | 0.0914 | 0.268 | 0.137 | 0.0942 | 0.0647 | 0.0873
12 | NCI-H2085 | 0.787 | 0.809 | 0.861 | 0.665 | 0.599 | 1.08 | 1.11 | 1.18 | 1.11 | 0.808 | 0.9 | 0.844 | 1.02 | 0.849 | 0.533 | 0.944 | 0.923 | 0.911 | 0.877 | 0.828
13 | NCI-H2087 | 0.996 | 0.656 | 0.252 | 0.116 | 0.116 | 0.96 | 0.754 | 0.284 | 0.202 | 0.195 | 0.886 | 0.797 | 0.344 | 0.248 | 0.197 | 0.606 | 0.618 | 0.354 | 0.163 | 0.128
14 | NCI-H2126 | 0.865 | 0.933 | 0.782 | 0.199 | 0.227 | 0.864 | 0.845 | 0.878 | 0.796 | 0.381 | 0.753 | 0.688 | 0.776 | 0.692 | 0.373 | 0.689 | 0.749 | 0.746 | 0.257 | 0.258
15 | NCI-H2228 | 0.691 | 0.588 | 0.168 | 0.167 | 0.12 | 0.893 | 0.486 | 0.146 | 0.168 | 0.112 | 0.614 | 0.264 | 0.171 | 0.15 | 0.141 | 0.333 | 0.158 | 0.11 | 0.148 | 0.12
